Earlier results, collected in patent US7074832B2, “Compositions containing antimicrobials and urea for the treatment of dermatological disorders and methods for their use” (Bradley Pharmaceuticals, Inc., priority 2001, dated 2006).
Converted amounts (≈) assume the structure as drawn.

Assays:
cyclooxygenase = settings: qualitative statement in the description

solubility in alcohol (alcohol)	solubility in water (water, 20° C.)	SMILES	cyclooxygenase activity inhibition (cyclooxygenase)
–	–	Cc1c(O)cc2c(c1C)O[C@](C)(CCC[C@H](C)CCC[C@H](C)CCCC(C)C)CC2 [gamma tocopherol]	inhibit cyclooxygenase activity
slightly soluble	10000 µg/mL (≈ 58.4 mM)	Cc1ncc([N+](=O)[O-])n1CCO [Metronidazole, 2-methyl-5-nitro-1H-imidazole-1-ethanol]	–
–	–	Cc1c(C)c2c(c(C)c1O)CC[C@@](C)(CCC[C@H](C)CCC[C@H](C)CCCC(C)C)O2 [alpha tocopherol]	not
–	–	Cc1c(O)cc2c(c1C)OC(C)(CCC(=O)O)CC2 (stereo not drawn) [gamma-CEHC, 2,7,8-trimethyl-2-(beta-carboxyethyl)-6-hydroxychroman]	inhibit cyclooxygenase activity
